Test results as given in patent US20040002521A1, “Cyclopropanecarboxylic acid amide compound and pharmaceutical use thereof” (AJINOMOTO CO. INC, priority 2000, published 2004).
Values after ≈ are worked out from the molar mass of the structure shown.

tested on: NF-kappa B; assay: Evaluation of NF-kappa B inhibition (β-gal reporter driven by 6 NF-kappa B binding sequences in immortalized HUVEC, IL-1β induced); assay type: cell-based; details: Homo sapiens; HUVEC reporter cells; compound added 30 minutes before IL-1β; β-gal activity determined after 16 hours; read-out: NF-kappa B Inhibitory Activity: IC50
Text: Evaluation of NF-kappa B Inhibition
In this evaluation, there were used cells obtained by stably introducing β-galactosidase (β-gal) gene of Escherichia coli, which was driven by an SV40 minimum promoter produced by fusing 6 NF-kappa B binding sequences derived from the kappa light chain enhancer of immunoglobulin arranged in a tandem to human normal umbilical venous endothelial cells (HUVEC) immortalized with an SV40 large-sized T-antigen. These cells were subjected to the subculture in an RPMI culture medium supplemented with 10% FBS (fetal bovine serum) and the cells were inoculated in wells of a 96-well plate in a concentration of 1×10^4 cells/well on the day before the initiation of the experiments. Each candidate compound of the present invention was dissolved in DMSO in an adequate concentration and then added to each well of the 96-well plate in such a manner that the final concentration of DMSO was adjusted to a level of not more than 1%. After 30 minutes from the addition of the compound, a […] IL-1β was added to each well to a final concentration of 50 ng/ml to thus induce the NF-kappa B activity and the β-gal activity was determined after 16 hours therefrom. The β-gal activity was determined using a chemiluminescent substrate (Galacton-Light-Plus available from Boehringer Manheim Company), which was used according to the protocols annexed to the reagent, and Luminescencer (available from ATO Company).

Compared with `CC1(C)CC1C(=O)Nc1ccc(Cc2ccccc2)cc1` (stereo not shown) [Example 1, 2,2-Dimethyl-cyclopropanecarboxylic acid (4-benzylphenyl)-amide], `CC1(C)CC1C(=O)Nc1ccc(Nc2ccccc2)cc1` (stereo not shown) [Example 12, 2,2-Dimethyl-cyclopropanecarboxylic acid (4-phenylamino-phenyl)-amide] is 1.5-fold lower in IC50: 3 µg/mL (≈ 10.7 µM) for the first, 2 µg/mL (≈ 7.13 µM) for the second.

Going from `Cc1ccc(NC(=O)C2CC2(C)C)cc1` (stereo not shown) [Example 2, 2,2-Dimethyl-cyclopropanecarboxylic acid p-tolylamide] to `CC1(C)CC1C(=O)Nc1ccc(Oc2ccc(Cl)cc2)cc1` (stereo not shown) [Example 9, 2,2-Dimethyl-cyclopropanecarboxylic acid [4-(4-chlorophenoxy)-phenyl]-amide], the IC50 rises from 3 µg/mL (≈ 14.8 µM) to 5 µg/mL (≈ 15.8 µM) (1.7-fold).
